Reference: PubChem BioAssay AID328 (DTP/NCI, 2004)
Where “and” joins values, the source holds several entries; their conditions need not be identical. Equal values may be shown once. Toxic doses and inconclusive results are not listed.

Test system: BDF1 mice, P388 leukemia ip, median survival T/C
Test: NCI In Vivo Anticancer Drug Screen. Data for tumor model P388 Leukemia (intraperitoneal) in B6D2F1 (BDF1) mice
Details: endpoint: median survival time, higher = longer survival
In short: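 Reported as T/C, where T is the survival measurement in dosed animals and C the same measurement in vehicle controls.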

[1] = dose: 100.0 mg/kg/injection, schedule: Q01DX001 (ip), vehicle: saline
[2] = dose: 200.0 mg/kg/injection, schedule: Q01DX001 (ip), vehicle: saline
[3] = dose: 200.0 mg/kg/injection, schedule: Q04DX003 (ip), vehicle: Klucel (hydroxypropylcellulose) (HPC)
[4] = dose: 400.0 mg/kg/injection, schedule: Q01DX001 (ip), vehicle: saline
[5] = dose: 25.0 mg/kg/injection, schedule: Q01DX009 (ip), vehicle: saline with Tween-80
[6] = dose: 50.0 mg/kg/injection, schedule: Q01DX009 (ip), vehicle: saline with Tween-80
[7] = dose: 100.0 mg/kg/injection, schedule: Q01DX009 (ip), vehicle: saline with Tween-80
[8] = dose: 50.0 mg/kg/injection, schedule: Q01DX009 (ip), vehicle: saline
[9] = dose: 100.0 mg/kg/injection, schedule: Q01DX009 (ip), vehicle: saline
[10] = dose: 100.0 mg/kg/injection, schedule: Q04DX003 (ip), vehicle: saline
[11] = dose: 50.0 mg/kg/injection, schedule: Q01DX009 (ip), vehicle: Klucel (hydroxypropylcellulose) (HPC)
[12] = dose: 200.0 mg/kg/injection, schedule: Q01DX009 (ip), vehicle: saline with Tween-80

O=C1OC(=O)C2C1C1C3C=CC3C1C21C=C1 (stereo not drawn)
T/C (dose: 85.0 mg/kg/injection, schedule: Q04DX003 (ip), vehicle: Klucel (hydroxypropylcellulose) (HPC)): 95 % of control
T/C [1]: 113 % of control and 116 % of control
T/C (dose: 135.0 mg/kg/injection, schedule: Q04DX003 (ip), vehicle: Klucel (hydroxypropylcellulose) (HPC)): 104 % of control
T/C [2]: 113 % of control
T/C [3]: 113 % of control
T/C (dose: 300.0 mg/kg/injection, schedule: Q04DX003 (ip), vehicle: Klucel (hydroxypropylcellulose) (HPC)): 118 % of control
T/C [4]: 100 % of control and 104 % of control

c1ccc(N=N/C(=N\Nc2ccccc2)SCCS/C(N=Nc2ccccc2)=N/Nc2ccccc2)cc1
T/C [5]: 99 % of control
T/C [6]: 99 % of control
T/C [7]: 121 % of control

C(CC1CO1)C1CO1 (stereo not drawn)
T/C (dose: 22.0 mg/kg/injection, schedule: Q01DX009 (ip), vehicle: saline): 119 % of control and 120 % of control
T/C (dose: 25.0 mg/kg/injection, schedule: Q01DX009 (ip), vehicle: saline): 157 % of control
T/C (dose: 30.0 mg/kg/injection, schedule: Q04DX003 (ip), vehicle: saline): 113 % of control
T/C (dose: 33.0 mg/kg/injection, schedule: Q01DX009 (ip), vehicle: saline): 150 % of control
T/C [8]: 161 % of control and 166 % of control and 176 % of control
T/C (dose: 67.0 mg/kg/injection, schedule: Q04DX003 (ip), vehicle: saline): 172 % of control and 176 % of control
T/C (dose: 75.0 mg/kg/injection, schedule: Q01DX009 (ip), vehicle: saline): 175 % of control and 200 % of control
T/C [9]: 215 % of control
T/C [10]: 241 % of control and 200 % of control
T/C (dose: 150.0 mg/kg/injection, schedule: Q04DX003 (ip), vehicle: saline): 240 % of control

CN(C)CC1CCC/C(=C\C=C\c2ccccc2)C1=O (stereo not drawn)
T/C (dose: 4.37 mg/kg/injection, schedule: Q01DX009 (ip), vehicle: Klucel (hydroxypropylcellulose) (HPC)): 104 % of control and 113 % of control
T/C (dose: 8.75 mg/kg/injection, schedule: Q01DX009 (ip), vehicle: Klucel (hydroxypropylcellulose) (HPC)): 109 % of control
T/C (dose: 17.5 mg/kg/injection, schedule: Q01DX009 (ip), vehicle: Klucel (hydroxypropylcellulose) (HPC)): 109 % of control and 118 % of control
T/C (dose: 35.0 mg/kg/injection, schedule: Q01DX009 (ip), vehicle: Klucel (hydroxypropylcellulose) (HPC)): 120 % of control
T/C [11]: 120 % of control
T/C (dose: 75.0 mg/kg/injection, schedule: Q01DX009 (ip), vehicle: Klucel (hydroxypropylcellulose) (HPC)): 120 % of control

COc1cc(C2NC(=O)C(C#N)=C(Nc3cccc(C)c3)S2)ccc1O (stereo not drawn)
T/C [6]: 101 % of control
T/C [7]: 114 % of control
T/C [12]: 119 % of control

Cn1cnc([N+](=O)[O-])c1Sc1ncnc2c1ncn2C1OC(CO)C(O)C1O (stereo not drawn)
T/C [11]: 113 % of control
T/C (dose: 100.0 mg/kg/injection, schedule: Q01DX009 (ip), vehicle: Klucel (hydroxypropylcellulose) (HPC)): 154 % of control
T/C (dose: 200.0 mg/kg/injection, schedule: Q01DX009 (ip), vehicle: Klucel (hydroxypropylcellulose) (HPC)): 122 % of control

O=C(CCC(O)c1ccccc1)NCc1ccccc1 (stereo not drawn)
T/C (dose: 100.0 mg/kg/injection, schedule: Q01DX001 (ip), vehicle: saline with Tween-80): 104 % of control
T/C (dose: 200.0 mg/kg/injection, schedule: Q01DX001 (ip), vehicle: saline with Tween-80): 100 % of control
T/C (dose: 400.0 mg/kg/injection, schedule: Q01DX001 (ip), vehicle: saline with Tween-80): 90 % of control

O=C(C[n+]1ccccc1)N/N=C/c1ccc([N+](=O)[O-])s1
T/C (dose: 12.5 mg/kg/injection, schedule: Q01DX009 (ip), vehicle: water): 114 % of control
T/C (dose: 25.0 mg/kg/injection, schedule: Q04DX003 (ip), vehicle: water): 90 % of control
T/C (dose: 50.0 mg/kg/injection, schedule: Q04DX003 (ip), vehicle: water): 104 % of control

O=C(O)c1ccc2c3c(cccc13)CC2
T/C (dose: 25.0 mg/kg/injection, schedule: Q01DX001 (ip), vehicle: saline sonified): 100 % of control
T/C (dose: 50.0 mg/kg/injection, schedule: Q01DX001 (ip), vehicle: saline sonified): 100 % of control
T/C (dose: 100.0 mg/kg/injection, schedule: Q01DX001 (ip), vehicle: saline sonified): 104 % of control

CC=C=C(C)CN
T/C [8]: 96 % of control
T/C [9]: 96 % of control
T/C (dose: 200.0 mg/kg/injection, schedule: Q01DX009 (ip), vehicle: saline): 92 % of control

CCCCCCC(=O)CC(SCC)c1ccccc1Cl (stereo not drawn)
T/C [6]: 93 % of control
T/C [7]: 107 % of control
T/C [12]: 121 % of control

C(=C/c1ccnc2ccccc12)/c1cccs1
T/C [5]: 102 % of control
T/C [6]: 110 % of control
T/C [7]: 111 % of control
T/C [12]: 119 % of control

COC(=O)CCCNC1CCCCC1
T/C (dose: 50.0 mg/kg/injection, schedule: Q01DX001 (ip), vehicle: saline): 107 % of control
T/C [1]: 114 % of control
T/C [2]: 102 % of control

C/C=C/C=N/NC(=S)NC
T/C (dose: 6.75 mg/kg/injection, schedule: Q01DX009 (ip), vehicle: saline with Tween-80): 109 % of control
T/C (dose: 13.5 mg/kg/injection, schedule: Q01DX009 (ip), vehicle: saline with Tween-80): 91 % of control
T/C (dose: 27.0 mg/kg/injection, schedule: Q01DX009 (ip), vehicle: saline with Tween-80): 86 % of control

Nc1nccnc1N
T/C [6]: 110 % of control
T/C (dose: 50.0 mg/kg/injection, schedule: Q04DX003 (ip), vehicle: saline with Tween-80): 95 % of control
T/C [7]: 115 % of control
T/C (dose: 100.0 mg/kg/injection, schedule: Q04DX003 (ip), vehicle: saline with Tween-80): 100 % of control
T/C [12]: 120 % of control
T/C (dose: 200.0 mg/kg/injection, schedule: Q04DX003 (ip), vehicle: saline with Tween-80): 87 % of control

O=[N+]([O-])c1cccc(O)c1
T/C [1]: 100 % of control
T/C [7]: 109 % of control
T/C [10]: 118 % of control
T/C [2]: 100 % of control
T/C [12]: 86 % of control
T/C (dose: 200.0 mg/kg/injection, schedule: Q04DX003 (ip), vehicle: saline): 100 % of control
T/C [4]: 100 % of control

O=C(OC1COC(Br)C(OC(=O)c2ccccc2)C1OC(=O)c1ccccc1)c1ccccc1 (stereo not drawn)
T/C (dose: 100.0 mg/kg/injection, schedule: Q04DX003 (ip), vehicle: Klucel (hydroxypropylcellulose) (HPC)): 100 % of control
T/C [3]: 95 % of control
T/C (dose: 400.0 mg/kg/injection, schedule: Q04DX003 (ip), vehicle: Klucel (hydroxypropylcellulose) (HPC)): 100 % of control
